Reference: the supplement of paper PMC4862054

Key:
[1] = system: MDA-MB-231; conditions: 72 h
Experimental: (§1)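 Drug sensitivity and resistance testing (DSRT) of breast cancer cell lines in 384-well plates, 5 concentrations in 10-fold dilutions over a compound-specific 10,000-fold range. After 72 h, cytotoxicity was read by CellTox Green fluorescence and viability by CellTiter-Glo luminescence (multiplexed), normalised to DMSO and benzethonium chloride controls. EC50 is the inflection point of the fitted dose-response curve (bottom asymptote free, so it can be relative for partial curves) and is censored at the highest tested concentration. Rows with DSS 0 (no meaningful response) were excluded.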

[2] = system: MCF-10A; conditions: 72 h
Experimental: as §1

[3] = system: MDA-MB-468; conditions: 72 h
Experimental: as §1

[4] = system: MDA-MB-231; conditions: 72 h; remark: listed apart in the source
In short: (§2)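 Two sequential readouts followed a 72 h incubation of breast cancer cell lines with compound at 5 concentrations in 10-fold steps over a compound-specific 10,000-fold range: CellTox Green fluorescence (485/520 nm) for cell death, then CellTiter-Glo luminescence, after 10 min at room temperature, for viability. Each plate was normalised to 0.1 % DMSO and a positive kill control. Dose-response curves were fitted for EC50, censored at the top concentration.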

[5] = system: MCF-10A; conditions: 72 h; remark: listed apart in the source
In short: as §2

[6] = system: BT-474; conditions: 72 h
In short: as §2

[7] = system: BT-549; conditions: 72 h
In short: as §2

[8] = system: HDQ-P1; conditions: 72 h
In short: as §2

[9] = system: MDA-MB-231; assay: normalised response (% of control), CellTiter-Glo; higher = more viable cells (100 = DMSO, 0 = benzethonium chloride kill control); conditions: incubation time: 72 h
In short: (§3)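 The table gives the normalised signal for a single concentration in each entry. Breast cancer cell lines were seeded (20 µl suspension) into 384-well plates holding compound at 5 concentrations in 10-fold steps over a compound-specific 10,000-fold range and incubated 72 h, then read for CellTox Green fluorescence (485/520 nm) and CellTiter-Glo luminescence. Normalisation on each plate used 0.1 % DMSO (100) and a positive kill control (0).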

[10] = system: DU-4475; assay: as above; conditions: incubation time: 72 h
In short: as §3

[11] = system: HCC1937; assay: as above; conditions: incubation time: 72 h
In short: as §3

[12] = system: MCF-10A; assay: as above; conditions: incubation time: 72 h
In short: as §3

[13] = system: BT-474; assay: as above; conditions: incubation time: 72 h
In short: as §3

[14] = system: MDA-MB-453; assay: as above; conditions: incubation time: 72 h
In short: as §3

[15] = system: MDA-MB-468; assay: as above; conditions: incubation time: 72 h
In short: as §3

[16] = system: Hs578T; assay: as above; conditions: incubation time: 72 h
In short: as §3

[17] = system: MDA-MB-436; assay: as above; conditions: incubation time: 72 h
In short: as §3

[18] = system: CAL-85-1; assay: as above; conditions: incubation time: 72 h
In short: as §3

[19] = system: CAL-120; assay: as above; conditions: incubation time: 72 h
In short: as §3

[20] = system: BT-549; assay: as above; conditions: incubation time: 72 h
In short: as §3

[21] = system: CAL-148; assay: as above; conditions: incubation time: 72 h
In short: as §3

[22] = system: HCC1143; assay: as above; conditions: incubation time: 72 h
In short: as §3

[23] = system: MFM-223; assay: as above; conditions: incubation time: 72 h
In short: as §3

[24] = system: SK-BR-3; assay: as above; conditions: incubation time: 72 h
In short: as §3

[25] = system: HCC1599; assay: as above; conditions: incubation time: 72 h
In short: as §3

[26] = system: CAL-51; assay: as above; conditions: incubation time: 72 h
In short: as §3

[27] = system: HDQ-P1; assay: as above; conditions: incubation time: 72 h
In short: as §3

[28] = system: MDA-MB-231; assay: normalised viability (% of control), CellTiter-Blue; higher = more viable cells (100 = DMSO, 0 = benzethonium chloride kill control); conditions: incubation time: 72 h
In short: (§4)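 After 72 h on compound-loaded 384-well plates, breast cancer cell lines received 2.5 µl CellTiter-Blue reagent for 2 h at 37 °C. Fluorescence at 560/590 nm was scaled per plate so that vehicle was 100 and a positive kill control was 0. The value stands for normalised viability at a single listed concentration of the series.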

[29] = system: DU-4475; assay: as above; conditions: incubation time: 72 h
In short: as §4

[30] = system: HCC1937; assay: as above; conditions: incubation time: 72 h
In short: as §4

[31] = system: BT-474; assay: as above; conditions: incubation time: 72 h
In short: as §4

[32] = system: MDA-MB-453; assay: as above; conditions: incubation time: 72 h
In short: as §4

[33] = system: MDA-MB-468; assay: as above; conditions: incubation time: 72 h
In short: as §4

[34] = system: Hs578T; assay: as above; conditions: incubation time: 72 h
In short: as §4

[35] = system: MDA-MB-436; assay: as above; conditions: incubation time: 72 h
In short: as §4

[36] = system: CAL-85-1; assay: as above; conditions: incubation time: 72 h
In short: as §4

[37] = system: CAL-120; assay: as above; conditions: incubation time: 72 h
In short: as §4

[38] = system: BT-549; assay: as above; conditions: incubation time: 72 h
In short: as §4

[39] = system: CAL-148; assay: as above; conditions: incubation time: 72 h
In short: as §4

[40] = system: HCC1143; assay: as above; conditions: incubation time: 72 h
In short: as §4

[41] = system: MFM-223; assay: as above; conditions: incubation time: 72 h
In short: as §4

[42] = system: SK-BR-3; assay: as above; conditions: incubation time: 72 h
In short: as §4

[43] = system: HCC1599; assay: as above; conditions: incubation time: 72 h
In short: as §4

[44] = system: CAL-51; assay: as above; conditions: incubation time: 72 h
In short: as §4

[45] = system: HDQ-P1; assay: as above; conditions: incubation time: 72 h
In short: as §4

For `CCC(C)(C)C(=O)O[C@H]1C[C@@H](C)C=C2C=C[C@H](C)[C@H](CC[C@@H]3C[C@@H](O)CC(=O)O3)[C@H]21` [Simvastatin], the “EC50, CellTox Green” value [1] was 1.68 µM, the “EC50, CellTox Green” value [2] was 2.59 µM and the “EC50, CellTox Green” value [3] was 0.511 µM. For the same compound, the “EC50, CellTiter-Glo” value [4] was 3.15 µM, the “EC50, CellTiter-Glo” value [5] was 6.39 µM and the “EC50, CellTiter-Glo” value [6] was 1.2 µM. For the same compound, the “EC50, CellTiter-Glo” value [7] was greater than 10 µM and the “EC50, CellTiter-Glo” value [8] was 1.7 µM.

Compound `CCC1=C[C@@H]2CN(C1)Cc1c([nH]c3ccccc13)[C@@](C(=O)OC)(c1cc3c(cc1OC)N(C)[C@H]1[C@@](O)(C(=O)OC)[C@H](OC(C)=O)[C@]4(CC)C=CCN5CC[C@]31[C@@H]54)C2` [Vinorelbine] (1 nM) has a normalised response [9] of 107%, a normalised response [10] of 98.9% and a normalised response [11] of 95%. For the same compound, the normalised response [12] was 108%, the normalised response [13] was 97.4% and the normalised response [14] was 102%. For the same compound, the normalised response [15] was 101%, the normalised response [16] was 97.2% and the normalised response [17] was 96.6%. It also gave a normalised response [18] of 101%, a normalised response [19] of 106% and a normalised response [20] of 106%. For the same compound, the normalised response [21] was 108%, the normalised response [22] was 101% and the normalised response [23] was 96.5%. It also gave a normalised response [24] of 95.2%, a normalised response [25] of 107% and a normalised response [26] of 102%. For the same compound, the normalised response [27] was 98.1%, the normalised viability [28] was 93.3% and the normalised viability [29] was 102%. For the same compound, the normalised viability [30] was 90.8%, the normalised viability [31] was 104% and the normalised viability [32] was 86.9%. It also gave a normalised viability [33] of 99.3%, a normalised viability [34] of 113% and a normalised viability [35] of 101%. It also gave a normalised viability [36] of 98.1%, a normalised viability [37] of 94.2% and a normalised viability [38] of 109%. It also gave a normalised viability [39] of 106%, a normalised viability [40] of 96.5% and a normalised viability [41] of 95.6%. The normalised viability [42] was 95.2%, the normalised viability [43] was 90.2% and the normalised viability [44] was 98.1%. The normalised viability [45] was 109%.
